# Measurements reported in patent US20260191835A1, “COMBINATIONS COMPRISING A MENIN-MLL INHIBITOR AND AT LEAST ONE OTHER THERAPEUTIC AGENT” (JANSSEN PHARMACEUTICA NV, priority 2022, published 2026).
# Tested on: MOLM-13 cells
# Assay: In vitro proliferation (Cell Titer Glo, 6 days) of Compound 51 in combination with gilteritinib, midostaurin, idarubicin or decitabine, MOLM-13
# Assay type: cell-based, human
# Set-up: key to maxR call (synergy/antagonism), combination with Gilteritinib on MOLM-13 cell proliferation / Synergy/antagonism call (maxR test), MOLM-13 Cell Proliferation: synergy is indicated by “**”; antagonism is indicated by “*”; no asterisk: absence of any asterisk indicates an additive effect
# Protocol: 3) In Vitro Proliferation—Menin-MLL Inhibitor in Combination with FLT3 Inhibitor (Gilteritinib or Midostaurin), DNA Intercalating Agent (Idarubicin) or Hypomethylating Agent (Decitabine)
# The effect of Compound 51 in combination with gilteritinib, midostaurin, idarubicin or decitabine was determined in proliferation assays.
# AML cell lines MOLM-13, OCI-AML3 and MV4-11 were purchased from DSMZ. MOLM-13 were grown in RPMI medium supplemented with 10% Fetal Bovine Serum (FBS) and 1% penicillin/streptomycin. MV4-11 cells were grown in IMDM medium supplemented with 10% FBS and 1% penicillin/streptomycin. OCI-AML3 cells were cultured in 80-90% alpha-MEM (with or without ribo- and deoxyribonucleosides)+10-20% FBS. All cell lines were cultured at 37° C. in 5% CO2 atmosphere.
# AML cell lines (10-20×10^3 cells/well) were seeded in 96-well plates and grown for 6 days in serum (10%)-containing medium in the presence or absence of inhibitors at the indicated concentrations. Proliferation was analyzed by means of a Cell Titer Glo assay using the […] (Promega, Madison, WI, USA), according to the manufacturer's instructions. Data are mean with standard deviation from two to four independent experiments in technical triplicates.
# R-based Biochemically Intuitive Generalized Loewe (BIGL) model implemented with a highest single agent (HSA) null model. Specifically, the BIGL methodology was applied to calculate drug-drug interactions (Van der Borght, K., Tourny, A., Bagdziunas, R. et al. BIGL: Biochemically Intuitive Generalized Loewe null model for prediction of the expected combined effect compatible with partial agonism and antagonism. Sci Rep 7, 17935 (2017); Thas, O., Tourny, A., Verbist, B., Hawinkel, S., Nazarov, M., Mutambanengwe, K., & Bijnens, L. Statistical detection of synergy: New methods and a comparative study. Pharmaceutical Statistics (2021)).
# Synergy matrix results of the BIGL analysis of the cell line data with HSA as mean model calculated on the basis of the cellular metabolic activity using Cell Titer-Glo assay. Bootstrap confidence intervals are indicated. Effect sizes and their confidence intervals are shown. […] No significant average effect if zero is included in the interval.
# [1] = Compound 51 0.05 μm, Gilteritinib 0.01 μM
# [2] = Compound 51 0.1 μm + Decitabine 0.015 μM
# [3] = Compound 51 0.1 μm + Decitabine 0.15 μM
# [4] = Compound 51 0.1 μm + Idarubicin 0.001 μM
# [5] = Compound 51 0.1 μm + Midostaurin 0.006 μM
# [6] = Compound 51 0.1 μm + Midostaurin 0.025 μM
# [7] = Compound 51 0.1 μm, Gilteritinib 0.01 μM
# [8] = Compound 51 1 μm + Decitabine 0.15 μM
# [9] = Compound 51 1 μm + Idarubicin 0.001 μM
# [10] = Compound 51 1 μm + Midostaurin 0.006 μM
# [11] = Compound 51 1 μm + Midostaurin 0.025 μM
# [12] = Compound 51 10 μm + Decitabine 0.015 μM
# [13] = Compound 51 10 μm + Decitabine 0.15 μM
# [14] = Compound 51 10 μm, Gilteritinib 0.01 μM
# [15] = Compound 51 10 μm, Gilteritinib 0.05 μM
compound,measurement,setting,value
CC(=O)N1CCC(CN2CC[C@@H](Cc3cn(-c4ccc(F)cc4C(=O)N(C)C(C)C)c4cncc(C)c34)C2)CC1 [Compound 51],"Effect size (BIGL, HSA null model), combination with Gilteritinib on MOLM-13 cell proliferation","Compound 51 0.05 μm, Gilteritinib 0.005 μM",−0.14
same,"Effect size (BIGL, HSA null model), combination with Gilteritinib on MOLM-13 cell proliferation",[1],−0.32
same,"maxR call (synergy/antagonism), combination with Gilteritinib on MOLM-13 cell proliferation",[1],**
same,"Effect size (BIGL, HSA null model), combination with Gilteritinib on MOLM-13 cell proliferation","Compound 51 0.05 μm, Gilteritinib 0.05 μM",−0.22
same,"Effect size (BIGL, HSA null model), combination with Gilteritinib on MOLM-13 cell proliferation","Compound 51 0.05 μm, Gilteritinib 0.1 μM",−0.14
same,"Effect size (BIGL, HSA null model), combination with Gilteritinib on MOLM-13 cell proliferation","Compound 51 0.05 μm, Gilteritinib 1 μM",−0.01
same,"Effect size (BIGL, HSA null model), MOLM-13 Cell Proliferation",Compound 51 0.1 μm + Decitabine 0.0015 μM,−0.01
same,"Effect size (BIGL, HSA null model), MOLM-13 Cell Proliferation",[2],−0.33
same,"Synergy/antagonism call (maxR test), MOLM-13 Cell Proliferation",[2],**
same,"Effect size (BIGL, HSA null model), MOLM-13 Cell Proliferation",[3],−0.35
same,"Synergy/antagonism call (maxR test), MOLM-13 Cell Proliferation",[3],**
same,"Effect size (BIGL, HSA null model), MOLM-13 Cell Proliferation",Compound 51 0.1 μm + Decitabine 1.5 μM,−0.05
same,"Effect size (BIGL, HSA null model), MOLM-13 Cell Proliferation",Compound 51 0.1 μm + Decitabine 3 μM,−0.03
same,"Effect size (BIGL, HSA null model), MOLM-13 Cell Proliferation",Compound 51 0.1 μm + Idarubicin 0.0005 μM,−0.13
same,"Effect size (BIGL, HSA null model), MOLM-13 Cell Proliferation",[4],−0.42
same,"Synergy/antagonism call (maxR test), MOLM-13 Cell Proliferation",[4],**
same,"Effect size (BIGL, HSA null model), MOLM-13 Cell Proliferation",Compound 51 0.1 μm + Idarubicin 0.0025 μM,−0.23
same,"Effect size (BIGL, HSA null model), MOLM-13 Cell Proliferation",Compound 51 0.1 μm + Idarubicin 0.005 μM,−0.11
same,"Effect size (BIGL, HSA null model), MOLM-13 Cell Proliferation",Compound 51 0.1 μm + Idarubicin 0.05 μM,0.02
same,"Effect size (BIGL, HSA null model), MOLM-13 Cell Proliferation",Compound 51 0.1 μm + Idarubicin 0.5 μM,0.02
same,"Effect size (BIGL, HSA null model), MOLM-13 Cell Proliferation",Compound 51 0.1 μm + Midostaurin 0.0012 μM,−0.08
same,"Effect size (BIGL, HSA null model), MOLM-13 Cell Proliferation",[5],−0.23
same,"Synergy/antagonism call (maxR test), MOLM-13 Cell Proliferation",[5],**
same,"Effect size (BIGL, HSA null model), MOLM-13 Cell Proliferation",[6],−0.17
same,"Synergy/antagonism call (maxR test), MOLM-13 Cell Proliferation",[6],**
same,"Effect size (BIGL, HSA null model), MOLM-13 Cell Proliferation",Compound 51 0.1 μm + Midostaurin 0.05 μM,−0.08
same,"Effect size (BIGL, HSA null model), MOLM-13 Cell Proliferation",Compound 51 0.1 μm + Midostaurin 0.1 μM,−0.04
same,"Effect size (BIGL, HSA null model), MOLM-13 Cell Proliferation",Compound 51 0.1 μm + Midostaurin 0.5 μM,−0.02
same,"Effect size (BIGL, HSA null model), combination with Gilteritinib on MOLM-13 cell proliferation","Compound 51 0.1 μm, Gilteritinib 0.0005 μM",−0.03
same,"Effect size (BIGL, HSA null model), combination with Gilteritinib on MOLM-13 cell proliferation","Compound 51 0.1 μm, Gilteritinib 0.005 μM",−0.13
same,"Effect size (BIGL, HSA null model), combination with Gilteritinib on MOLM-13 cell proliferation",[7],−0.3
same,"maxR call (synergy/antagonism), combination with Gilteritinib on MOLM-13 cell proliferation",[7],**
same,"Effect size (BIGL, HSA null model), combination with Gilteritinib on MOLM-13 cell proliferation","Compound 51 0.1 μm, Gilteritinib 0.05 μM",−0.24
same,"Effect size (BIGL, HSA null model), combination with Gilteritinib on MOLM-13 cell proliferation","Compound 51 0.1 μm, Gilteritinib 0.1 μM",−0.14
same,"Effect size (BIGL, HSA null model), combination with Gilteritinib on MOLM-13 cell proliferation","Compound 51 0.1 μm, Gilteritinib 1 μM",−0.01
same,"Effect size (BIGL, HSA null model), MOLM-13 Cell Proliferation",Compound 51 1 μm + Decitabine 0.0015 μM,0.03
same,"Effect size (BIGL, HSA null model), MOLM-13 Cell Proliferation",Compound 51 1 μm + Decitabine 0.015 μM,−0.1
same,"Effect size (BIGL, HSA null model), MOLM-13 Cell Proliferation",[8],−0.38
same,"Synergy/antagonism call (maxR test), MOLM-13 Cell Proliferation",[8],**
same,"Effect size (BIGL, HSA null model), MOLM-13 Cell Proliferation",Compound 51 1 μm + Idarubicin 0.0005 μM,−0.08
same,"Effect size (BIGL, HSA null model), MOLM-13 Cell Proliferation",[9],−0.38
same,"Synergy/antagonism call (maxR test), MOLM-13 Cell Proliferation",[9],**
same,"Effect size (BIGL, HSA null model), MOLM-13 Cell Proliferation",Compound 51 1 μm + Idarubicin 0.0025 μM,−0.24
same,"Effect size (BIGL, HSA null model), MOLM-13 Cell Proliferation",Compound 51 1 μm + Idarubicin 0.005 μM,−0.11
same,"Effect size (BIGL, HSA null model), MOLM-13 Cell Proliferation",Compound 51 1 μm + Idarubicin 0.05 μM,0.02
same,"Effect size (BIGL, HSA null model), MOLM-13 Cell Proliferation",Compound 51 1 μm + Idarubicin 0.5 μM,0.02
same,"Effect size (BIGL, HSA null model), MOLM-13 Cell Proliferation",Compound 51 1 μm + Midostaurin 0.0012 μM,−0.03
same,"Effect size (BIGL, HSA null model), MOLM-13 Cell Proliferation",[10],−0.18
same,"Synergy/antagonism call (maxR test), MOLM-13 Cell Proliferation",[10],**
same,"Effect size (BIGL, HSA null model), MOLM-13 Cell Proliferation",[11],−0.19
same,"Synergy/antagonism call (maxR test), MOLM-13 Cell Proliferation",[11],**
same,"Effect size (BIGL, HSA null model), MOLM-13 Cell Proliferation",Compound 51 1 μm + Midostaurin 0.05 μM,−0.08
same,"Effect size (BIGL, HSA null model), MOLM-13 Cell Proliferation",Compound 51 1 μm + Midostaurin 0.1 μM,−0.04
same,"Effect size (BIGL, HSA null model), MOLM-13 Cell Proliferation",Compound 51 1 μm + Midostaurin 0.5 μM,−0.02
same,"Effect size (BIGL, HSA null model), combination with Gilteritinib on MOLM-13 cell proliferation","Compound 51 1 μm, Gilteritinib 0.0005 μM",0.03
same,"Effect size (BIGL, HSA null model), combination with Gilteritinib on MOLM-13 cell proliferation","Compound 51 1 μm, Gilteritinib 0.005 μM",−0.1
same,"Effect size (BIGL, HSA null model), combination with Gilteritinib on MOLM-13 cell proliferation","Compound 51 1 μm, Gilteritinib 0.01 μM",−0.22
same,"Effect size (BIGL, HSA null model), combination with Gilteritinib on MOLM-13 cell proliferation","Compound 51 1 μm, Gilteritinib 0.05 μM",−0.25
same,"Effect size (BIGL, HSA null model), combination with Gilteritinib on MOLM-13 cell proliferation","Compound 51 1 μm, Gilteritinib 0.1 μM",−0.14
same,"Effect size (BIGL, HSA null model), combination with Gilteritinib on MOLM-13 cell proliferation","Compound 51 1 μm, Gilteritinib 1 μM",−0.01
same,"Effect size (BIGL, HSA null model), MOLM-13 Cell Proliferation",Compound 51 10 μm + Decitabine 0.0015 μM,−0.06
same,"Effect size (BIGL, HSA null model), MOLM-13 Cell Proliferation",[12],−0.16
same,"Synergy/antagonism call (maxR test), MOLM-13 Cell Proliferation",[12],**
same,"Effect size (BIGL, HSA null model), MOLM-13 Cell Proliferation",[13],−0.38
same,"Synergy/antagonism call (maxR test), MOLM-13 Cell Proliferation",[13],**
same,"Effect size (BIGL, HSA null model), MOLM-13 Cell Proliferation",Compound 51 10 μm + Decitabine 1.5 μM,−0.05
same,"Effect size (BIGL, HSA null model), MOLM-13 Cell Proliferation",Compound 51 10 μm + Decitabine 3 μM,−0.03
same,"Effect size (BIGL, HSA null model), combination with Gilteritinib on MOLM-13 cell proliferation","Compound 51 10 μm, Gilteritinib 0.0005 μM",−0.05
same,"Effect size (BIGL, HSA null model), combination with Gilteritinib on MOLM-13 cell proliferation","Compound 51 10 μm, Gilteritinib 0.005 μM",−0.17
same,"Effect size (BIGL, HSA null model), combination with Gilteritinib on MOLM-13 cell proliferation",[14],−0.26
same,"maxR call (synergy/antagonism), combination with Gilteritinib on MOLM-13 cell proliferation",[14],**
same,"Effect size (BIGL, HSA null model), combination with Gilteritinib on MOLM-13 cell proliferation",[15],−0.27
same,"maxR call (synergy/antagonism), combination with Gilteritinib on MOLM-13 cell proliferation",[15],**
same,"Effect size (BIGL, HSA null model), combination with Gilteritinib on MOLM-13 cell proliferation","Compound 51 10 μm, Gilteritinib 0.1 μM",−0.14
same,"Effect size (BIGL, HSA null model), combination with Gilteritinib on MOLM-13 cell proliferation","Compound 51 10 μm, Gilteritinib 1 μM",−0.01
same,combination effect on proliferation at low doses of Midostaurin,"in combination with Midostaurin 6 to 25 nM, MOLM-13",synergized
same,combination effect on proliferation (cytotoxicity),"in combination with decitabine, MOLM-13, 6-day CellTiter-Glo matrix",synergistically cytotoxic
same,combination effect on proliferation at low doses of gilteritinib,"in combination with gilteritinib 500 pM, MOLM-13",synergistic effect
same,combination effect on proliferation (cytotoxicity),"in combination with gilteritinib, MOLM-13, 6-day CellTiter-Glo matrix",not antagonistically cytotoxic
same,combination effect on proliferation (cytotoxicity),"in combination with idarubicin, MOLM-13, 6-day Cell Titer-Glo matrix",synergistically cytotoxic
same,combination effect on proliferation (cytotoxicity),"in combination with midostaurin, MOLM-13, 6-day CellTiter-Glo matrix",not antagonistically cytotoxic
